Consider three compounds from patent publication US10259779B2 (WAYNE STATE UNIVERSITY, priority 2016, dated 2019).

Data set [1] concerns HDAC proteins in HeLa cell lysates. In words: Global HDAC inhibition with HeLa cell lysates (HDAC-Glo I/II substrate). The data set is classed as biochemical. Particulars: for Deacetylase activity (%): Hela Lysate; for IC50: HeLa cell lysates. The method, then: HDAC activity was measured using the commercially available HDAC-Glo™ I/II substrate (Promega).
Lysates were prepared according to the reported procedure.^28 HeLa-S3 cells (purchased from Biovest) were lysed in lysis buffer (1×10^9 cells in 10 mL lysis buffer; 50 mM Tris-HCl, pH 8.0, 10% glycerol, 150 mM NaCl, 0.5% Triton X-100, and 1× protease inhibitor cocktail (GenDEPOT)) with rotation at 4° C. for 30 min. Cell debris was removed by centrifugation at 12000 rpm at 4° C. for 30 min. Protein concentration of the supernatant was determined using Bio-Rad protein assay (BioRad, Bradford reagent). Lysates were stored at −80° C.
To measure global HDAC inhibition, HeLa cell lysates (1 μg total protein) were mixed with HDAC-Glo™ buffer in polystyrene 96-well half area white plate (Corning) to a final volume of 12 μL, followed by addition of inhibitors in DMSO (0.5 μL) and incubation for 15 min at room temperature without rocking. An uninhibited control reaction was also included that contained DMSO (0.5 μL). Finally, deacetylase activity was measured using the HDAC-Glo™ assay kit (Promega) as per the manufacturer's protocol. Specifically, the HDAC-Glo™ substrate (1 mL) and developer ([…]) were first premixed to form the HDAC-Glo™ reagents. Then, to monitor deacetylase activity, HDAC-Glo™ reagent (5 μL) and HDAC-Glo™ buffer (7.5 μL) were added to each well (25 μL total volume) and incubated for 35 min at room temperature without rocking. The deacetylase activity was measured as luminescent signal using a GeniosPlus Fluorimeter (Tecan) at optimal gain. The concentrations of inhibitors reported in the dose-dependent studies (Table 2) are final concentrations after addition of HDAC-Glo™ reagent HDAC-Glo™ buffer.

The target of another data set is HDAC1 (Homo sapiens, UniProt Q13547). In words: ELISA-based HDAC activity assay, HDAC1.
Chain of HDAC1 (Q13547 whole entry): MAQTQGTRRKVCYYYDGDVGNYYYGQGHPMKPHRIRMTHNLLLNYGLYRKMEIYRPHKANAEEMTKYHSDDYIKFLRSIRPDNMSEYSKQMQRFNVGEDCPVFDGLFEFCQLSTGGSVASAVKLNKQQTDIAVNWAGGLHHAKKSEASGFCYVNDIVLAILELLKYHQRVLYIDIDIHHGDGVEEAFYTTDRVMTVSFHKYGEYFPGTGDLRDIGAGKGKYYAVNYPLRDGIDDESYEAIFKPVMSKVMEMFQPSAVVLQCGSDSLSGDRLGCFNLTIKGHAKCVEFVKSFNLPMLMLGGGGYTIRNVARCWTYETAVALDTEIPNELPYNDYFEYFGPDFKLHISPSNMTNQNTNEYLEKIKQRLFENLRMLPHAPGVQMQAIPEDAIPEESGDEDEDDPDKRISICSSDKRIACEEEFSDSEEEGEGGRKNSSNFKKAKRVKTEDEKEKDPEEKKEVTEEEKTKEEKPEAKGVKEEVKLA
For a further data set, the target named is HDAC3 (Homo sapiens, UniProt O15379). In words: ELISA-based HDAC activity assay, HDAC3. (In general: ELISA stands for enzyme-linked immunosorbent assay.)
Chain of HDAC3 (O15379 whole entry): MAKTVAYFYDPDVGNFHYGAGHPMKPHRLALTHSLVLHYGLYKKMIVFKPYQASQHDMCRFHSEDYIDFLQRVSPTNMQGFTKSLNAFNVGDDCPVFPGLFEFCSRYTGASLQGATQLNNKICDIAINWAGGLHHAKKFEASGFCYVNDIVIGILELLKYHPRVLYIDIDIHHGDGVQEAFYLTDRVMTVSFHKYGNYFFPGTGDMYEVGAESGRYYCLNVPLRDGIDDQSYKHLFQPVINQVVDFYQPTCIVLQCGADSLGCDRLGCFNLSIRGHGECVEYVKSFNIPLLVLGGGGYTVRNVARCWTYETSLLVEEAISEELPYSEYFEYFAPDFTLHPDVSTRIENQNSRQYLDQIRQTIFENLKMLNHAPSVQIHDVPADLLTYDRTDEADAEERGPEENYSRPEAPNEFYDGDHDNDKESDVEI
Chain of HDAC3 (Q9Y618 whole entry partner): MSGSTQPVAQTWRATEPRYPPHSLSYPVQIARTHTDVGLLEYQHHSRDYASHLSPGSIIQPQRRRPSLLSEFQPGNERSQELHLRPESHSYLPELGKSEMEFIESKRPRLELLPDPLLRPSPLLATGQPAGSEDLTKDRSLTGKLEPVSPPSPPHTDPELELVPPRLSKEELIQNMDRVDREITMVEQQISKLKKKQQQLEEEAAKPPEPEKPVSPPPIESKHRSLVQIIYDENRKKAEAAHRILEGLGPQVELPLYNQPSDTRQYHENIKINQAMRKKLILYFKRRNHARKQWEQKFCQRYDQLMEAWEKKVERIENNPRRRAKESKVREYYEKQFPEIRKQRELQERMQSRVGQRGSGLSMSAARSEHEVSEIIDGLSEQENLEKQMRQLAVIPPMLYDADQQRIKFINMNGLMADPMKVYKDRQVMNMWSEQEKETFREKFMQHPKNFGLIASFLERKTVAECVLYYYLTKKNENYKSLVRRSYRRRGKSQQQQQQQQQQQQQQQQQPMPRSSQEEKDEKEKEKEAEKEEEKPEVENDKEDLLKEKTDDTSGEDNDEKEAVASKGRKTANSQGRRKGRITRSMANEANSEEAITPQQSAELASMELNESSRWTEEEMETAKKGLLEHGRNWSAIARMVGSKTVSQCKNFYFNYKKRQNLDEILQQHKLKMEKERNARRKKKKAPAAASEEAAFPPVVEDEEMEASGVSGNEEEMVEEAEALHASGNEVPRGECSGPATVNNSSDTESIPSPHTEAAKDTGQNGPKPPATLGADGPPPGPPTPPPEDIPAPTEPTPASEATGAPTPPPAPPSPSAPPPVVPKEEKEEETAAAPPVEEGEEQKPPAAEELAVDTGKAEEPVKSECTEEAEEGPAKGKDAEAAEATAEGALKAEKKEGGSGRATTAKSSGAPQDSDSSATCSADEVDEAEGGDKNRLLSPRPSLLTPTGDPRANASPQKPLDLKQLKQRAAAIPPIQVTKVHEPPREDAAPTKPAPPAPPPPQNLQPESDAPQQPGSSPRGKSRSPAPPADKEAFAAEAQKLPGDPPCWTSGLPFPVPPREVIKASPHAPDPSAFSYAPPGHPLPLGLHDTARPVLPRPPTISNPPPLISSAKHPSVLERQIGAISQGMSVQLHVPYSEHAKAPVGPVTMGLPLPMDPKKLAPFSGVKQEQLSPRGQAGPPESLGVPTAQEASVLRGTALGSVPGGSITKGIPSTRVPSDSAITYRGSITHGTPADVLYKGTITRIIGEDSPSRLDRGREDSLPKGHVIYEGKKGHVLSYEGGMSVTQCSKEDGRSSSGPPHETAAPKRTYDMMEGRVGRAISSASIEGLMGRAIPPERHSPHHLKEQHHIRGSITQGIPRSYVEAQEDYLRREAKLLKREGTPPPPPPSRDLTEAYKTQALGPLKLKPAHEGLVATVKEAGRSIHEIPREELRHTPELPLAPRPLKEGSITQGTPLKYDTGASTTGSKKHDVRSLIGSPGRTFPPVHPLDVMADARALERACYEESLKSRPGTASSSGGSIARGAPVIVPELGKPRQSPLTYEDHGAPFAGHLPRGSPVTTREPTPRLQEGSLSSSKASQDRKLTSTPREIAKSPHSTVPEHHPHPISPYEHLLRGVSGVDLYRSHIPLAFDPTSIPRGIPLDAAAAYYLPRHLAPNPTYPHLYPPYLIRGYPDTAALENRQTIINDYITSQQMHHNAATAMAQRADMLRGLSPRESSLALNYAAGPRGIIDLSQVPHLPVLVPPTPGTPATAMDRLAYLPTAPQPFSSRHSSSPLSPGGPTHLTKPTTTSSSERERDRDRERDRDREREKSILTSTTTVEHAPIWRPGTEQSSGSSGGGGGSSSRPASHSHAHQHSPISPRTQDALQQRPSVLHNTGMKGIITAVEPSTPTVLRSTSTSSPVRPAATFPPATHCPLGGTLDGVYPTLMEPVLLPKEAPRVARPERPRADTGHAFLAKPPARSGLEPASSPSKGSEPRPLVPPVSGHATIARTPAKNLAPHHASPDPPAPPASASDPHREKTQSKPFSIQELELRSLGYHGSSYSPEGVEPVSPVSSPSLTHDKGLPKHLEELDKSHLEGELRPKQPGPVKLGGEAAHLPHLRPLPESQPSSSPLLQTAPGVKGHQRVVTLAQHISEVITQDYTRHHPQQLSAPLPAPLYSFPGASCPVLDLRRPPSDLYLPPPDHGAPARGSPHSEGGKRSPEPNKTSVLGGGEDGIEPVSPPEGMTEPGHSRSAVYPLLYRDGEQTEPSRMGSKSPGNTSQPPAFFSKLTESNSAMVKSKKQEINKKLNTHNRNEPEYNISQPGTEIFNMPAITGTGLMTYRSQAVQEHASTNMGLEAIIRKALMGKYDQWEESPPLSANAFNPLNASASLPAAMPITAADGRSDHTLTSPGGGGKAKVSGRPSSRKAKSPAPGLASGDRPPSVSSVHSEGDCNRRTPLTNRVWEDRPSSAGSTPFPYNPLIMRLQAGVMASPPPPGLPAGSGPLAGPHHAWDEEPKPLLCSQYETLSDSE
Another data set relates to U937 cells. In words: In vitro cell growth inhibition, MTT assay, U937. Particulars: Homo sapiens, U-937, U937 cell line. The data set is classed as cell-based. A general note: Formazan colour is commonly taken as a measure of viable cells.
The next data set can be described thus: in vitro. Particulars: human, Jurkat cells (leukemia cell line).
In data set [2] the test system is acetyl-α-tubulin (HDAC6 substrate) in U937 cells. In words: In cellulo selectivity testing, western blot of acetyl-α-tubulin. Particulars: 18 hours, SAHA 5 μM, 1f 20-60 μM, compared to DMSO control. The data set is classed as cell-based.
[3] abbreviates: potency (IC50) to HDAC1, 2, and 3, range over HDAC1, 2, and 3.
Setting [4] is: read-out: Deacetylase activity (%) HDAC1.
Where [5] appears, read: read-out: Deacetylase activity (%) HDAC3.

Molecules are shown by their SMILES.

The IC50 is the concentration that gives 50% inhibition. For orientation: EC50 means the concentration giving half of the maximal effect. A higher EC50 goes with a need for much substance. For orientation: viability means the share of living cells, or the viability signal relative to a control. A low value points to more harm to the cells.

With `CCC(CCCC(=O)Nc1ccccc1)CCC(=O)NO` (racemic) [Compound 1b, 4-ethyl-N^1-hydroxy-N^8-phenyloctanediamide], the “Deacetylase activity (%)” value in data set [1] (2.4 × 10^−5 M) was 31 ± 2%; in data set [1] (3.0 × 10^−6 M), 92 ± 1%; in data set [1] (4.8 × 10^−5 M), 12 ± 1%; in data set [1] (6.0 × 10^−6 M) it was 82 ± 7%; in data set [1] ([…] 10^−5 M) it was 53 ± 3%. In addition, the IC50 in data set [1] is 14 ± 1 µM; against HDAC1 (IC50 values (nM) HDAC1), 4400 nM; on HDAC1 (setting [3]) it was 4400 to 6000 nM; against HDAC3 it was 6 µM. In addition, the figures for the activity at 1 µM on HDAC1 (setting [4]) and on HDAC3 (setting [5]) were 81 ± 3% and 83 ± 7%, respectively. Further, the values for the activity at 2 µM on HDAC1 (setting [4]) and on HDAC3 (setting [5]) were 68 ± 5% and 71 ± 4%, respectively. Moreover, the activity at 4 µM at HDAC1 (setting [4]) is 58 ± 1%; on HDAC3 (setting [5]), 64 ± 2%. For the same compound, the activity at 8 µM on HDAC1 (setting [4]) came out at 32 ± 4%; at HDAC3 (setting [5]), 52 ± 6%. Besides, the figures for the activity at 16 µM on HDAC1 (setting [4]) and on HDAC3 (setting [5]) were 19 ± 1% and 17 ± 8%, respectively.

For `CCCCCCC(CCCC(=O)Nc1ccccc1)CCC(=O)NO` (racemic) [Compound 1d, 4-hexyl-N^1-hydroxy-N^8-phenyloctanediamide], the “Deacetylase activity (%)” value in data set [1] (1.0 × 10^−4 M) is listed as 35 ± 3%; in data set [1] (1.25 × 10^−5 M) it was 87 ± 1%; in data set [1] (2.0 × 10^−4 M), 21 ± 3%; in data set [1] (5.0 × 10^−5 M), 56 ± 2%; in data set [1] ([…] 10^−5 M), 73 ± 2%. Also, the IC50 in data set [1] was 60 ± 1 µM; against HDAC1 (IC50 values (nM) HDAC1) it was 35000 nM; against HDAC1 (setting [3]), 30000 to 38000 nM; against HDAC3, 30 µM. The compound also displayed an EC50 in the data set on U937 cells of 16 µM. The compound further gave a viability at 44 h, 1 µM in the data set “in vitro” of 69 ± 4%. Moreover, the viability at 44 h, 10 µM in “in vitro” worked out at 39 ± 6%. Besides, the activity at 1.25 µM was determined as 97 ± 3% on HDAC1 (setting [4]) and 100 ± 6% on HDAC3 (setting [5]). In addition, the activity at 10 µM came to 83 ± 4% on HDAC1 (setting [4]) and 88 ± 2% at HDAC3 (setting [5]). The values for the activity at 20 µM at HDAC1 (setting [4]) and at HDAC3 (setting [5]) were 67 ± 4% and 56 ± 4%, respectively. For the same compound, the activity at 40 µM on HDAC1 (setting [4]) stood at 46 ± 1%; on HDAC3 (setting [5]), 42 ± 5%. The values for the activity at 80 µM at HDAC1 (setting [4]) and on HDAC3 (setting [5]) were 26 ± 2% and 25 ± 1%, respectively. Besides, the activity at 160 µM came to 13 ± 1% on HDAC1 (setting [4]) and 5 ± 3% at HDAC3 (setting [5]).

`O=C(CCC(CCCC(=O)Nc1ccccc1)Cc1ccccc1)NO` (racemic) [Compound 1f, 4-benzyl-N^1-hydroxy-N^8-phenyloctanediamide]: the “Deacetylase activity (%)” value in data set [1] (1.0 × 10^−4 M) stood at 35 ± 5%; in data set [1] (1.25 × 10^−5 M), 88 ± 4%; in data set [1] (2.0 × 10^−4 M), 19 ± 2%; in data set [1] (5.0 × 10^−5 M) it was 58 ± 4%; in data set [1] ([…] 10^−5 M), 74 ± 5%. In addition, the IC50 in data set [1] was determined as 62 ± 1 µM; against HDAC1 (potency (IC50) with HDAC1, text, Table 4 value in μM), 29000 nM; against HDAC3, 42 µM. In addition, in data set [2], the “levels of acetyl-α-tubulin (AcTub), western blot” value was “dose-dependent increase”. In the data set on U937 cells, this compound yielded an EC50 of 28 µM. The compound further had a viability at 44 h, 1 µM in “in vitro” of 89 ± 20%. Besides, the viability at 44 h, 10 µM in the data set “in vitro” stood at 97 ± 4%. Also, the activity at 5 µM on HDAC1 (setting [4]) was 87 ± 4%; on HDAC3 (setting [5]), 90 ± 3%. Further, the activity at 10 µM at HDAC1 (setting [4]) was found to be 75 ± 5%; at HDAC3 (setting [5]), 87 ± 4%. Besides, the activity at 20 µM at HDAC1 (setting [4]) worked out at 58 ± 5%; at HDAC3 (setting [5]), 63 ± 5%. Moreover, the activity at 40 µM was 44 ± 2% on HDAC1 (setting [4]) and 55 ± 3% at HDAC3 (setting [5]). Also, the activity at 80 µM came out at 27 ± 2% on HDAC1 (setting [4]) and 33 ± 2% at HDAC3 (setting [5]). For the same compound, the activity at 160 µM on HDAC1 (setting [4]) was found to be 16 ± 1%; on HDAC3 (setting [5]), 19 ± 2%.
